{"source": "patent US6338963B1", "about": "“Use of carbon monoxide dependent guanylyl cyclase modifiers to stimulate neuritogenesis” (NeoTherapeutics, Inc., priority 1994, dated 2002)", "key": {"GDNF": {"test_system": "GDNF", "test": "Summary of effects on growth factor mRNA and protein (Table R): GDNF", "set-up": "key: ± = mRNA; + = protein; nt = not tested", "description": "(§1) The constellation of effects of AIT-082 on production of mRNA encoding growth factors and on production of growth factor proteins is shown in Table R. The results summarized in […] show both transcriptional and translational effects on growth factors that are in the categories of neurotrophins, pleiotrophins, members of the S100 family of EF hand calcium binding proteins, and members of the TGFβ superfamily. As indicated, effects have been shown at both the mRNA (transcriptional) and protein (translational) levels."}, "BDNF mRNA": {"test_system": "BDNF mRNA", "test": "RT-PCR of growth factor mRNA after T8 spinal cord hemisection: BDNF", "type": "in vivo, Wistar rats"}, "mice [1]": {"test_system": "mice", "test": "Hot plate nocioception", "type": "in vivo", "settings": "hot plate 55° C.", "experimental": "Mice were placed on an electric hot plate (Ominitech) at 55° C. and the latency time until the subject licked his hind paw was measured. If there was no response by 45 seconds, the trial was terminated. By this test there was no effect of AIT-082 on nocioception."}, "NT-3 mRNA": {"test_system": "NT-3 mRNA", "test": "Northern blot of neurotrophin mRNA from astrocytes: NT-3", "type": "cell-based, NIH Swiss mice", "set-up": "key: The conditions which produced a detectable amount of each of the neurotrophin mRNAs are indicated by a “+”; a “++” indicating that at least twice the detectable amount was present; Those blots which were negative are indicated by a “−”", "settings": "24 hours", "experimental": "Induction of neurotrophin mRNA was determined by northern blot analysis of astrocytes cultured with AIT-082, NGF, or both. The cells were harvested and RNA extracted at 24 hours after treatment.\nMore particularly, astrocytes from the cerebral cortex of NIH Swiss mice (Harlan) were isolated. Briefly, newborn pups (0-24 hours) were decapitated. Their brains were removed under aseptic conditions and were placed in modified Dulbecco's medium (DMEM) containing 20% heat-inactivated horse serum (Hyclone) (“complete medium”). The neopallium was then dissected from each cerebral hemisphere and minced into 1 mm cubes.\nThe astrocytes were then isolated by mechanical dissociation. The cubes were vortexed at maximum speed for one minute. The cell suspension was then passed first through 75 mm Nitex then through 10 mm Nitex. The resulting cell suspension was diluted in complete medium to a final concentration of one brain per 10 ml of complete medium. Ten milliliters of the diluted cell suspension was added to each 100 mm Falcon tissue culture plate (Fisher). After 3 days the medium was replaced with 10 ml fresh complete medium and subsequently was replaced twice weekly with DMEM containing 10% heat inactivated horse serum (“growth medium”). After two weeks in culture the astrocytes formed a confluent monolayer.\nFor RNA extraction, astrocytes were trypsinized. The astrocytes were then replated onto 100 mm PORN coated plates at a cell density of 10^6 cells per plate (10 ml growth medium). […]\nThe blots were probed with ^32P-labeled cDNA (NGF, NT-3 and BDNF probes) or oligonucleotide probe (FGF-2) by hybridization in Piperazine-N,N′-bis-(2-ethanesulfonic acid) (PIPES) buffer (50 mM PIPES, pH 6.8; 50 mM NaH2PO4; 0.1 M NaCl; 5% SDS and 1 mM EDTA) overnight at 50° C. […] Various concentrations ([…] of total RNA), as determined by spectrophotometry, of each sample were blotted and probed so that quantification could be done after insuring a linear film response. Quantification was performed using MCID Image Analysis (St. Catherine's, Ontario, Canada). […]"}, "NT-3": {"test_system": "NT-3", "test": "Summary of effects on growth factor mRNA and protein (Table R): NT-3", "set-up": "key: ± = mRNA; + = protein; nt = not tested", "description": "as §1"}, "mice [2]": {"test_system": "mice", "test": "Motor coordination, accelerating Roto-Rod treadmill", "type": "in vivo", "settings": "AIT dose 0.005 mg/kg", "experimental": "Motor coordination was measured using an accelerating Roto-Rod treadmill for mice (Ugo Basile Co.). At various times after treatment with saline or drug, mice were placed on the Roto-Rod, which accelerates to maximum speed over a 5 minute period. The time in seconds at which the subject falls off was recorded in Table B directly below. Each animal was tested 3 times and the mean time was recorded."}}, "data": [{"smiles": "O=C(CCn1cnc2c(=O)[nH]cnc21)Nc1ccc(C(=O)O)cc1", "note": "[AIT-082, N-4-carboxyphenyl-3-(6-oxohydropurin-9-yl)propanamide]", "values": [{"measurement": "GDNF, effect on mRNA/protein production", "setting": "GDNF; Aged Brain", "value": "+"}, {"measurement": "GDNF, effect on mRNA/protein production", "setting": "GDNF; Lesioned Brain", "value": "+"}, {"measurement": "GDNF, effect on mRNA/protein production", "setting": "GDNF; Normal Brain", "value": "+"}, {"measurement": "GDNF, effect on mRNA/protein production", "setting": "GDNF; Normal Spinal Cord", "value": "+"}, {"measurement": "BDNF mRNA level", "setting": "BDNF mRNA; at the level of the lesion", "value": "no significant differences"}, {"measurement": "BDNF mRNA level", "setting": "BDNF mRNA; caudal to lesion, 7 days", "value": "no significant effects"}, {"measurement": "BDNF mRNA level", "setting": "BDNF mRNA; rostral to lesion, 3 days, 20 mg/kg day in drinking water, sham-operated over lesion animals", "value": "significantly increased"}, {"measurement": "BDNF mRNA level", "setting": "BDNF mRNA; rostral to lesion, 7 days, lesioned treated vs lesioned not treated", "value": "significantly higher"}, {"measurement": "effect on nocioception (hot plate latency)", "setting": "mice [1]", "value": "no effect"}, {"measurement": "NT-3 mRNA", "setting": "NT-3 mRNA; AIT-082 100 mM", "value": "++"}, {"measurement": "NT-3 mRNA", "setting": "NT-3 mRNA; AIT-082 + NGF (40 ng/ml)", "value": "+"}, {"measurement": "NT-3, effect on mRNA/protein production", "setting": "NT-3; Aged Brain", "value": "+"}, {"measurement": "NT-3, effect on mRNA/protein production", "setting": "NT-3; Cultured Cells", "value": "±"}, {"measurement": "NT-3, effect on mRNA/protein production", "setting": "NT-3; Lesioned Spinal Cord", "value": "±"}, {"measurement": "NT-3, effect on mRNA/protein production", "setting": "NT-3; Normal Brain", "value": "+"}, {"measurement": "Roto-Rod performance, Time", "setting": "mice [2]", "value": "162 ± 93", "unit": "s"}]}]}
